Test results published in paper PMC11395333, “The Bifunctional Dimer Caffeine-Indan Attenuates α-Synuclein Misfolding, Neurodegeneration and Behavioral Deficits after Chronic Stimulation of Adenosine A1 Receptors” (International Journal of Molecular Sciences, 2024).

Columns and labels:
male Sprague-Dawley rats = assay: Y-maze test after 7-day chronic i.p. CPA injection; format: in vivo, rat
Text: All animals were housed and treated humanely following the guidelines from the following governing bodies: National Research Council (US) Committee for the Update of the Guide for the Care and Use of Laboratory Animals (Washington DC, USA, 2011); Canadian Council on Animal Care (CCAC); and the University of Saskatchewan Animal Research Ethics Board (AREB), which approved our Animal Use Protocol (#20070090 and #20170079). The animals were housed in cages of two, with access to food pellets and water ad libitum. The four treatments of the Sprague-Dawley rats consisted of the following: 1. Control (0.1% DMSO in 0.9% saline); 2. CPA; 3. […] Drugs were dissolved at 3 mg/mL in DMSO, and each drug was administered to the animals by daily i.p. injections (3 mg/kg or 5 mg/kg body weight) for 7 consecutive days. […] Then, on days 8 and 9 following the final injections, the animals were subjected to several behavioral tests. The Y-maze or the modified Y-maze is a rodent behavior test used to assess short-term spatial memory based on the innate inclination of animals to explore new areas not previously seen. In this study, the Y-maze test is used to assess short-term memory, especially hippocampal-dependent spatial memory. The maze is shaped like a “Y”, with each arm oriented at a 120° angle from one another. The arms are 50 cm in length, 15 cm in width and 35 cm in depth. For the first trial, which lasts 15 min, the animal is placed at the beginning of the “Start arm” and is free to explore this arm and another one (referred to as the “Old arm”), while the remaining arm (“New arm”) is blocked. This trial should give the animal time to explore and become acquainted with the maze’s two arms. After a resting period of 90 min, the blocked arm is opened, and the animal is placed again at the “Start arm”. […] This trial is then used to calculate the percentage of time the animals spent in each arm. A video camera was used to record the animal movement in both trials. Each experiment was repeated at least fifteen times per treatment and the average of each treatment is presented in the bar graphs as average means ± standard error of the mean (SEM).

α-Syn = assay: Immunohistochemistry and Thioflavin-S staining of brain slices (α-Syn expression and aggregation); format: in vivo, rat
Text: All animals were housed and treated humanely following the guidelines from the following governing bodies: National Research Council (US) Committee for the Update of the Guide for the Care and Use of Laboratory Animals (Washington DC, USA, 2011); Canadian Council on Animal Care (CCAC); and the University of Saskatchewan Animal Research Ethics Board (AREB), which approved our Animal Use Protocol (#20070090 and #20170079). The animals were housed in cages of two, with access to food pellets and water ad libitum. The four treatments of the Sprague-Dawley rats consisted of the following: 1. Control (0.1% DMSO in 0.9% saline); 2. CPA; 3. […] Drugs were dissolved at 3 mg/mL in DMSO, and each drug was administered to the animals by daily i.p. injections (3 mg/kg or 5 mg/kg body weight) for 7 consecutive days. […] Then, on days 8 and 9 following the final injections, the animals were subjected to several behavioral tests.
Anesthetized rats were transcardially perfused with 0.9% saline, and then fixed with 4% paraformaldehyde. The extracted brains were put in 30% cryoprotected sucrose solution for 48 h prior to slicing. The brains were initially frozen at −40 °C (BFS-30 mp controllers) and sliced with the help of a microtome (Leica SM2010 R Sliding controller). Coronal slices of 40 μm were then washed three times in 0.1 M phosphate-buffered saline followed by 1 h blocking at room temperature with blocking buffer. The buffer solution components have been previously described. The slices were then incubated overnight at 4 °C with the following primary antibodies: 1:200 mouse monoclonal to α-synuclein (Abcam Inc, Toronto, ON, Canada; Cat# ab280377) and 1:200 rabbit polyclonal to tyrosine hydroxylase (TH) (Millipore-Sigma, Oakville, ON, Canada; Cat# AB152). Subsequently, slices were then incubated for 1 h in the dark at room temperature with the following secondary antibodies (1:1000): AlexaFluor-555-conjugated anti-mouse (Cat# A-21127) and AlexaFluor-647-conjugated anti-rabbit (Cat# A-21244) purchased from Invitrogen (Thermo Fisher Scientific, Waltham, MA, USA). Slices were then treated with Thioflavin-S (see further details below). Lastly, the slices were incubated for 5 min at room temperature with DAPI (2 mg/mL) from Invitrogen (Thermo Fisher Scientific; Cat# R37606) and images were taken using a Zeiss LSM700 confocal microscope (Carl Zeiss Group, Toronto, ON, Canada) and analyzed with ImageJ (Open-Source Public Domain software, United States National Institute of Health (US NIH), Bethesda, MD, USA). Images of the hippocampal CA1 pyramidal layer and the SN pars compacta were obtained using the Zeiss Plan-Apochromat 63X/1.4 oil objective lens (Carl Zeiss Group, Toronto, ON, Canada). Images were acquired as Z-stack images of hippocampal or SN regions with 12–13 Z-stack images taken at 1 µm intervals near the middles of brain slices. Two Z-stack images were taken along the hippocampal CA1 or SN pars compacta region for each slice, and immunofluorescence signals were averaged using densitometry analysis.
Thioflavin-S (Thio-S) is a fluorescent marker (Sigma-Aldrich, Oakville, ON, Canada; Cat# T1892-25G) that detects α-Syn aggregates and amyloid plaques. Coronal slices of 40 μm were firstly treated with 0.3% KMnO4 for 4 min, followed by a 30 min incubation with 1 M phosphate buffered saline at 4 °C. These slices were then stained with 0.05% Thioflavin-S in 50% ethanol in the dark for 8 min, rinsed with 80% ethanol twice, followed by three rinses with ultra-pure water for 30 s. Finally, the slices were incubated again with 1 M phosphate buffered saline for 30 min at 4 °C before starting the DAPI stain. The FITC filter (488 nm laser line) was used to image Thioflavin-S using a Zeiss LSM700 confocal microscope (Carl Zeiss Group, Canada) and images were analyzed with ImageJ (Public Domain).

[1] = CPA 3 mg/kg i.p. daily for 7 days, alone

Row | SMILES | Y-maze, time spent in the start arm (male Sprague-Dawley rats; 3 mg/kg i.p. with 3 mg/kg CPA, 7 days) | Y-maze, cognitive deficits (male Sprague-Dawley rats; 5 mg/kg i.p. with 3 mg/kg CPA, 7 days) | Y-maze, percentage of time spent in the novel arm (male Sprague-Dawley rats; 3 or 5 mg/kg i.p. co-administered with 3 mg/kg CPA, 7 days) | Thio-S levels in CA1 hippocampus (α-Syn; 3 mg/kg + CPA) | Thio-S levels in SNc (α-Syn; 3 mg/kg + CPA, compared to control) | Thio-S levels in SNc (α-Syn; 5 mg/kg + CPA) | Thio-S levels in hippocampus (α-Syn; 5 mg/kg + CPA) | α-Syn levels in SNc and CA1 hippocampal region (α-Syn; co-treatment with 3 mg/kg CPA, 7 days) | Y-maze, hippocampal-dependent spatial memory (male Sprague-Dawley rats; [1]) | α-Syn levels in SNc and CA1 hippocampal region (α-Syn; [1]) | Thio-S levels in SNc (α-Syn; CPA 3 mg/kg i.p. daily for 7 days, alone, compared to control)
1 | Cn1c(=O)c2c(nc(CCCCCCNC3CCc4ccccc43)n2C)n(C)c1=O (centres unmarked) [C8–6–I] | approximately 45% | significantly ameliorated the cognitive deficits caused by CPA | attenuated the learning deficits caused by CPA | abolished the CPA-induced Thio-S levels | significant increase in Thio-S levels | reached control levels | moderate but significant Thio-S level increase | prevented this α-Syn upregulation |  |  | 
2 | OC[C@H]1O[C@@H](n2cnc3c(NC4CCCC4)ncnc32)[C@H](O)[C@@H]1O [CPA, N^6-Cyclopentyladenosine, reference compound] |  |  |  |  |  |  |  |  | induced hippocampal-dependent spatial memory deficits | markedly increased | significant increase in Thio-S levels
